Source: patent publication US20130289070A1, “Use of Levocabastine for Modulating Generation of Pro-Inflammatory Cytokines” (Bausch & Lomb Incorporated, priority 2007, published 2013)

System: EoL-1 (human eosinophilic leukaemia cell line) cells
Assay: TNF-α-induced cytokine release, non-differentiated EoL-1 cells (NO PMA) (Luminex)
Format: cell-based
Parameters: key to Fractalkine (NO PMA), p of decrement / IL-1α (NO PMA), p of decrement / IL-1β (NO PMA), p of decrement / IL-1ra (NO PMA), p of decrement / IL-5 (NO PMA), p of decrement / IL-7 (NO PMA), p of decrement / IL-8 (NO PMA), p of decrement / IP-10 (NO PMA), p of decrement / MCP-1 (NO PMA), p of decrement / MIP-1β (NO PMA), p of decrement / VEGF (NO PMA), p of decrement: ns = non significant
Protocol: EoL-1 (human eosinophilic leukaemia cell line) cells (Saito et al., 1985; Mayumi, 1992) were maintained in RPMI-1640 medium with L-glutamine supplemented with 10% (v/v) FBS at 37° C. in a humidified atmosphere with 5% CO2. Where indicated, 24 h before the experiment 25 ng/mL PMA ((phorbol 12-myristate 13-acetate, purchased from Sigma Aldrich) was added to the medium to induce eosinophil granulation and differentiation (Ohtsu et al., 1993; Zimmermann et al., 2000).
Half-million cells were aliquoted per point in a 24 well plate; each experiment was performed in triplicate and carried out in parallel with eosinophils differentiated and non differentiated with PMA (25 ng/mL, 24 h). Cells were suspended in low serum medium (RPMI-1640, 0.1% (v/v) FBS). TNF-α was used to induce cytokine secretion as previously described by Steube et al. (2000), and the net release was obtained by comparison to the basal (non-TNF-α treated). In the first experiment we evaluated the concentration and time relation between TNF-α stimulation and cytokine release. Therefore, 5, 10, and 25 ng/mL of TNF-α was administered to the cells at 0, ½, 1, 2, 3, 6, 12 and 24 h (data not shown). An aliquot of 150 μL of supernate was collected for cytokines' analysis. […] Differentiated and non-differentiated EoL-1 cells were exposed from 0.1 to 2.3 mM levocabastine ([…]Levocabastine 0.05% solution eye drops containing cyclodextrins, without benzalkonium chloride), and aliquots of the supernates were collected after 12 and 24 h. The content of cytokines at time zero was estimated by treating the cells with 400 nM calcimycin (A-23187), which is a cytolytic agent that frees all the mediators from the cytoplasmic compartment. In addition, for each experiment we tested the effect of the vehicle, which was added to the wells in a concentration equal to the maximum amount used for drug dilution.
Samples (supernates 12 and 24 h) in triplicate were analyzed using Luminex 200™ (Luminex, Austin, Tex.) and Beadview software v1.0 (Upstate Cell Signaling Solutions, Temecula, Calif.).
All data are presented as mean±SEM for the indicated number of experiments. Statistical significance was determined by Newman-Keuls test after ANOVA using GraphPad Prism (version 3.0; GraphPad Software Inc., San Diego, Calif., USA). P-values<0.05 were considered to be significant.

[1] = 24 h, Levocabastine 2 mM vs TNF-α
[2] = 24 h, TNF-α 5 ng + Levocabastine 2 mM vs TNF-α
[3] = 24 h, TNF-α 10 ng + Levocabastine 2 mM vs TNF-α
[4] = 24 h, TNF-α 20 ng + Levocabastine 2 mM vs TNF-α
[5] = 24 h, TNF-α 5, 10, 20 ng + Levocabastine 2 mM vs TNF-α
[6] = 24 h, VCAM-1 + Levocabastine 2 mM vs VCAM-1
[7] = non-differentiated EoL-1 cells, in the presence of VCAM-1 or fibronectin

C[C@@H]1CN([C@H]2CC[C@](C#N)(c3ccc(F)cc3)CC2)CC[C@]1(C(=O)O)c1ccccc1 [Levocabastine, levocabastine]
IL-8 (NO PMA), p of decrement [1]: ns | IL-10 (NO PMA), p of decrement [1]: ns | IL-12p40 (NO PMA), p of decrement [1]: P < 0.01 | IP-10 (NO PMA), p of decrement [1]: ns | MCP-1 (NO PMA), p of decrement [1]: Increase | MIP-1α (NO PMA), p of decrement [1]: Increase | MIP-1β (NO PMA), p of decrement [1]: ns | RANTES (NO PMA), p of decrement [1]: Increase | TGF-α (NO PMA), p of decrement [1]: ns | VEGF (NO PMA), p of decrement [1]: P < 0.001 | GM-CSF (NO PMA), p of decrement [2]: ns | IL-1ra (NO PMA), p of decrement [2]: P < 0.01 | IL-1β (NO PMA), p of decrement [2]: ns | IL-5 (NO PMA), p of decrement [2]: ns | IL-6 (NO PMA), p of decrement [2]: ns | IL-7 (NO PMA), p of decrement [2]: ns | IL-8 (NO PMA), p of decrement [2]: ns | IL-10 (NO PMA), p of decrement [2]: ns | IL-12p40 (NO PMA), p of decrement [2]: P < 0.001 | MCP-1 (NO PMA), p of decrement [2]: ns | TGF-α (NO PMA), p of decrement [2]: P < 0.05 | VEGF (NO PMA), p of decrement [2]: P < 0.001 | GM-CSF (NO PMA), p of decrement [3]: ns | IL-1ra (NO PMA), p of decrement [3]: P < 0.05 | IL-1β (NO PMA), p of decrement [3]: ns | IL-5 (NO PMA), p of decrement [3]: ns | IL-6 (NO PMA), p of decrement [3]: ns | IL-7 (NO PMA), p of decrement [3]: ns | IL-8 (NO PMA), p of decrement [3]: ns | IL-10 (NO PMA), p of decrement [3]: ns | IL-12p40 (NO PMA), p of decrement [3]: P < 0.001 | MCP-1 (NO PMA), p of decrement [3]: ns | TGF-α (NO PMA), p of decrement [3]: ns | VEGF (NO PMA), p of decrement [3]: P < 0.001 | GM-CSF (NO PMA), p of decrement [4]: ns | IL-1ra (NO PMA), p of decrement [4]: P < 0.01 | IL-1β (NO PMA), p of decrement [4]: ns | IL-5 (NO PMA), p of decrement [4]: ns | IL-6 (NO PMA), p of decrement [4]: ns | IL-7 (NO PMA), p of decrement [4]: ns | IL-8 (NO PMA), p of decrement [4]: ns | IL-10 (NO PMA), p of decrement [4]: ns | IL-12p40 (NO PMA), p of decrement [4]: P < 0.001 | MCP-1 (NO PMA), p of decrement [4]: ns | TGF-α (NO PMA), p of decrement [4]: P < 0.05 | VEGF (NO PMA), p of decrement [4]: P < 0.001 | Fractalkine (NO PMA), p of decrement [5]: increase of cytokine secretion | G-CSF (NO PMA), p of decrement [5]: increase of cytokine secretion | IL-1α (NO PMA), p of decrement [5]: increase of cytokine secretion | IP-10 (NO PMA), p of decrement [5]: increase of cytokine secretion | MIP-1α (NO PMA), p of decrement [5]: increase of cytokine secretion | MP-1β (NO PMA), p of decrement [5]: increase of cytokine secretion | RANTES (NO PMA), p of decrement [5]: increase of cytokine secretion | Fractalkine (NO PMA), p of decrement (24 h, TNF-α vs Lev 0.1 mM): ns | IL-1ra (NO PMA), p of decrement (24 h, TNF-α vs Lev 0.1 mM): ns | IL-1α (NO PMA), p of decrement (24 h, TNF-α vs Lev 0.1 mM): ns | IL-1β (NO PMA), p of decrement (24 h, TNF-α vs Lev 0.1 mM): ns | IL-5 (NO PMA), p of decrement (24 h, TNF-α vs Lev 0.1 mM): ns | IL-7 (NO PMA), p of decrement (24 h, TNF-α vs Lev 0.1 mM): ns | IL-8 (NO PMA), p of decrement (24 h, TNF-α vs Lev 0.1 mM): ns | IP-10 (NO PMA), p of decrement (24 h, TNF-α vs Lev 0.1 mM): p < 0.05 | MCP-1 (NO PMA), p of decrement (24 h, TNF-α vs Lev 0.1 mM): ns | MIP-1β (NO PMA), p of decrement (24 h, TNF-α vs Lev 0.1 mM): ns | VEGF (NO PMA), p of decrement (24 h, TNF-α vs Lev 0.1 mM): ns | Fractalkine (NO PMA), p of decrement (24 h, TNF-α vs Lev 0.5 mM): ns | IL-1ra (NO PMA), p of decrement (24 h, TNF-α vs Lev 0.5 mM): ns | IL-1α (NO PMA), p of decrement (24 h, TNF-α vs Lev 0.5 mM): ns | IL-1β (NO PMA), p of decrement (24 h, TNF-α vs Lev 0.5 mM): ns | IL-5 (NO PMA), p of decrement (24 h, TNF-α vs Lev 0.5 mM): ns | IL-7 (NO PMA), p of decrement (24 h, TNF-α vs Lev 0.5 mM): ns | IL-8 (NO PMA), p of decrement (24 h, TNF-α vs Lev 0.5 mM): ns | IP-10 (NO PMA), p of decrement (24 h, TNF-α vs Lev 0.5 mM): p < 0.05 | MCP-1 (NO PMA), p of decrement (24 h, TNF-α vs Lev 0.5 mM): ns | MIP-1β (NO PMA), p of decrement (24 h, TNF-α vs Lev 0.5 mM): ns | VEGF (NO PMA), p of decrement (24 h, TNF-α vs Lev 0.5 mM): ns | Fractalkine (NO PMA), p of decrement (24 h, TNF-α vs Lev 1.0 mM): ns | IL-1ra (NO PMA), p of decrement (24 h, TNF-α vs Lev 1.0 mM): ns | IL-1α (NO PMA), p of decrement (24 h, TNF-α vs Lev 1.0 mM): ns | IL-1β (NO PMA), p of decrement (24 h, TNF-α vs Lev 1.0 mM): ns | IL-5 (NO PMA), p of decrement (24 h, TNF-α vs Lev 1.0 mM): ns | IL-7 (NO PMA), p of decrement (24 h, TNF-α vs Lev 1.0 mM): ns | IL-8 (NO PMA), p of decrement (24 h, TNF-α vs Lev 1.0 mM): ns | IP-10 (NO PMA), p of decrement (24 h, TNF-α vs Lev 1.0 mM): ns | MCP-1 (NO PMA), p of decrement (24 h, TNF-α vs Lev 1.0 mM): ns | MIP-1β (NO PMA), p of decrement (24 h, TNF-α vs Lev 1.0 mM): ns | VEGF (NO PMA), p of decrement (24 h, TNF-α vs Lev 1.0 mM): ns | Fractalkine (NO PMA), p of decrement (24 h, TNF-α vs Lev 2.3 mM): ns | IL-1ra (NO PMA), p of decrement (24 h, TNF-α vs Lev 2.3 mM): ns | IL-1α (NO PMA), p of decrement (24 h, TNF-α vs Lev 2.3 mM): ns | IL-1β (NO PMA), p of decrement (24 h, TNF-α vs Lev 2.3 mM): ns | IL-5 (NO PMA), p of decrement (24 h, TNF-α vs Lev 2.3 mM): ns | IL-7 (NO PMA), p of decrement (24 h, TNF-α vs Lev 2.3 mM): ns | IL-8 (NO PMA), p of decrement (24 h, TNF-α vs Lev 2.3 mM): ns | IP-10 (NO PMA), p of decrement (24 h, TNF-α vs Lev 2.3 mM): ns | MCP-1 (NO PMA), p of decrement (24 h, TNF-α vs Lev 2.3 mM): ns | MIP-1β (NO PMA), p of decrement (24 h, TNF-α vs Lev 2.3 mM): ns | VEGF (NO PMA), p of decrement (24 h, TNF-α vs Lev 2.3 mM): p < 0.01 | MIP-1α (NO PMA), p of increase (24 h, TNF-α vs Lev 0.1-2.3 mM): concentration dependent way p < 0.001 | RANTES (NO PMA), p of increase (24 h, TNF-α vs Lev 0.1-2.3 mM): concentration dependent way p < 0.001 | Fractalkine (NO PMA), p of decrement [6]: ns | G-CSF (NO PMA), p of decrement [6]: ns | GM-CSF (NO PMA), p of decrement [6]: ns | IL-1ra (NO PMA), p of decrement [6]: P < 0.01 | IL-1α (NO PMA), p of decrement [6]: ns | IL-1β (NO PMA), p of decrement [6]: ns | IL-5 (NO PMA), p of decrement [6]: ns | IL-6 (NO PMA), p of decrement [6]: P < 0.001 | IL-7 (NO PMA), p of decrement [6]: ns | IL-8 (NO PMA), p of decrement [6]: P < 0.001 | IL-10 (NO PMA), p of decrement [6]: ns | IL-12p40 (NO PMA), p of decrement [6]: ns | IP-10 (NO PMA), p of decrement [6]: ns | MCP-1 (NO PMA), p of decrement [6]: ns | MIP-1α (NO PMA), p of decrement [6]: Increase | MIP-1β (NO PMA), p of decrement [6]: ns | RANTES (NO PMA), p of decrement [6]: Increase | TGF-α (NO PMA), p of decrement [6]: ns | VEGF (NO PMA), p of decrement [6]: P < 0.001 | release of VEGF (FIG. 4 Panel B) (Naïve EoL-1 cells challenged with TNF-α, levocabastine with cyclodextrin pre-treatment): reduced release | IL-6 release (FIG. 13) [7]: inhibited | release, cytokine not named (FIG. 12) [7]: inhibited
